According to patent publication US5750553A, “Optionally substituted phenylimidazolidines, their preparation process and intermediates, their use as medicaments and the pharmaceutical compositions containing them” (Roussel Uclaf, priority 1994, dated 1998):

Tests used:
[1] = biological target: T1, androgen receptor (Rattus norvegicus, UniProt P15207); experiment: Study of the affinity of the products of the invention for the androgen receptor (displacement of tritiated testosterone, rat prostate cytosol); format: binding, Male Sprague Dawley EOPS rats; settings: Incubation: 24 hours, 0° C., RBA=100 (CH)/(CX), testosterone = 100
T1 construct: the prostates are removed, weighed and homogenized at 0° C; from tissue; host or cells: prostate cytosol (209,000 g supernatant) of castrated male Sprague Dawley rats
T1 sequence (P15207 1-902): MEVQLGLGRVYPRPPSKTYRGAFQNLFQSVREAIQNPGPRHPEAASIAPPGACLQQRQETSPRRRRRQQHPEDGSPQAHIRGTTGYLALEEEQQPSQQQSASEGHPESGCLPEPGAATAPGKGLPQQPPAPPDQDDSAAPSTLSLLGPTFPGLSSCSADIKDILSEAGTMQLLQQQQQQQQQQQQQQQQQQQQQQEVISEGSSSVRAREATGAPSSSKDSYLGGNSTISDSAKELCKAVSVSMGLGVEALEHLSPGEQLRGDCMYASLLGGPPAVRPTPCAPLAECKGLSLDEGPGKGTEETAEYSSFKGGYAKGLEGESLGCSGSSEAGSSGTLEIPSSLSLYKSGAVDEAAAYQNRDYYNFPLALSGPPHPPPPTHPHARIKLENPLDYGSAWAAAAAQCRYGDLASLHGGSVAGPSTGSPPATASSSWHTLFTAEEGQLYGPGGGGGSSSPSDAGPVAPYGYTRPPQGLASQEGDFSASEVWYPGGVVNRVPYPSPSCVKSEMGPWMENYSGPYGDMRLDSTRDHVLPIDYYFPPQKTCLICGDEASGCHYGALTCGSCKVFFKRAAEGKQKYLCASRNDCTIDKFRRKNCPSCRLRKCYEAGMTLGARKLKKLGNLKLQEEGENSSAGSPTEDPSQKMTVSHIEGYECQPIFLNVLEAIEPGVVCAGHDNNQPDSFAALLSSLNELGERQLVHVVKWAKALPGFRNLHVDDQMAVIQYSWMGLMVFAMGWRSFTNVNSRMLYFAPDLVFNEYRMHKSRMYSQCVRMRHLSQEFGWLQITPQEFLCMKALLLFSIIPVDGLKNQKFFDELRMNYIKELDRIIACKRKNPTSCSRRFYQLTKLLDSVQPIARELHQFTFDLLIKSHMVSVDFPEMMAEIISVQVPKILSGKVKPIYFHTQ
Method: 1) Study of the affinity of the products of the invention for the androgen receptor
Male Sprague Dawley EOPS rats weighing 180-200 g, castrated 24 hours previously, are sacrificed, the prostates are removed, weighed and homogenized at 0° C. using a Potter glass, in a buffered solution (10 mM Tris, 0.25M saccharose, 0.1 mM PMSF (phenylmethanesulphonylfluoride), 20 mM sodium molybdate, HCl pH 7.4) to which is added extemporaneously 2 mM of DTT (DL dithiothreitol), at the rate of 1 g of tissue per 8 ml of buffer.
The homogenate is then ultracentrifuged at 0° C., for 30 minutes at 209,000 g. […] Calculation of the relative bond affinity (RBA).
The following 2 curves are drawn: the percentage of the bound tritiated hormone B/T as a function of the logarithm of the concentration of the unlabelled reference hormone and B/T as a function of the logarithm of the concentration of the unlabelled product tested. The straight line of the equation I50 =(B/Tmax+B/Tmin)/2 is determined. B/Tmax=% of the bound tritiated hormone for an incubation of this tritiated hormone at the concentration (T). B/Tmin=% of the bound tritiated hormone for an incubation of this tritiated hormone at the concentration (T) in the presence of a large excess of unlabelled hormone (2500.10^-9 M).
The intersections of the straight line I50 and the curves enable the concentrations of the unlabelled reference hormone (CH) and of the unlabelled tested product (CX) which inhibit by 50% the binding of the tritiated hormone on the receptor to be evaluated.

[2] = test system: renal ornithine decarboxylase (ODC); experiment: Determination of the androgen or anti-androgen activity using dosage of ornithine decarboxylase (ODC) in castrated mice receiving testosterone propionate; format: in vivo, male SWISS mice; settings: percutaneous route, 1.5 mg/kg in 10 μl; testosterone propionate 3 mg/kg sub-cutaneous; kidneys 20 hours after treatment
Method: 2) Determination of the androgen or anti-androgen activity of the products of the invention using dosage of ornithine decarboxylase (ODC).
20 hours after the treatments, the animals are sacrificed, the kidneys are removed, then homogenized at 0° C., using a teflon glass grinder in 10 volumes of Tris-HCl 50 mM (pH 7.4) buffer containing 250 μM of pyridoxal phosphate, 0.1 mM EDTA, and 5 mM of dithiothreitol. The homogenate is then centrifuged at 209,000 g for 30 minutes.
At 37° C., renal ornithine decarboxylase converts an isotopic mixture of unlabelled ornithine and tritiated ornithine into unlabelled putrescine and tritiated putrescine.
The putrescine is then collected on selective ion-exchange papers. After drying, the excess unconverted tritiated and unlabelled ornithine is eliminated by washing 3 times with 0.1M of ammonium hydroxide. The papers are dried, then the radioactivity is counted after addition of scintillating Aqualite.
The results are expressed as fmoles (10^-15 M) of tritiated putrescine formed/hour/mg of proteins.
Test: the products are administered by percutaneous route at 1.5 mg/kg in a volume of 10 μl.

Structure (SMILES)	relative bond affinity (RBA) [1]	% of inhibition of the ODC of the controls receiving only testosterone propionate [2]
N#Cc1ccc(N2C(=O)NC(CO)(CO)C2=O)cc1C(F)(F)F [Example 26, 4-(4,4-bis(hydroxymethyl)-2,5-dioxo-1-imidazolidinyl)-2-(trifluoromethyl)-benzonitrile]	4	–
CC1(CO)C(=O)N(c2ccc(C#N)c(C(F)(F)F)c2)C(=O)N1CCF (centres unmarked) [Example 3, 4-(2,5-dioxo 3-(2-fluoroethyl) 4-(hydroxymethyl) 4-methyl 1-imidazolidinyl)2-(trifluoromethyl) benzonitrile]	6	47%
CN1C(=O)N(c2ccc(C#N)c(C(F)(F)F)c2)C(=O)C1(C)CF (centres unmarked) [Example 6]	16	84%
